# pEC50, pKd: −log10 of the molar value. “Also recorded” adds a separate entry of the source. Like-named read-outs stand apart in the source and are kept apart here.
# What was measured:
# [1] = molecular target: purified MeV P-L proteins (Measles virus, UniProt Q9WMB3); assay type: biochemical
# [2] = system: MeV L with resistance mutations (LS869P, LI1009F, LY1106S, LS869P/Y942H); assay type: binding
# [3] = system: MeV; assay type: cell-based
# [4] = Stability in human liver microsomes; assay type: in vitro ADME
# Protocol: (§1) To determine stability in plasma, GHP-88309 was incubated in triplicate in pooled human or CD-1 mouse plasma (BioIVT) in glass tubes in a 37° C. shaker-incubator (150 rpm). Procaine and benfluorex served as positive controls and were analyzed in parallel. […] To determine stability in liver microsomes, GHP-88309 was incubated in triplicate in glass tubes in 50 mM Tris-HCl (pH 7.5) buffer with 8 mM MgCl2, 25 μg/mL alamethicin, Phase I and Phase II cofactors (NADPH regenerating system (NRS) and 2 mM UDPGA, respectively) and 0.5 mg total protein pooled mixed gender human liver microsomes (BioIVT) or pooled CD-1 mouse liver microsomes (Xenotech) in a 37° C. shaker incubator (150 rpm). Verapamil served as Phase I positive control, negative controls lacked cofactors and contained 2% (w/v) NaHCO3 in water instead of NRS. Aliquots were taken after 0, 15, […], 30, 60 and 120 minutes and processed as outlined above.
# [5] = system: different immortalized cell lines; test: Cell proliferation / cytotoxicity in cultured immortalized cell lines; assay type: cell-based
# [6] = molecular target: CDV-Onderstepoort RdRP (Canine distemper virus, UniProt P24658); assay type: cell-based
# [7] = system: HPIV3-JS RdRP; assay type: cell-based
# [8] = system: HPIV1 isolate 5F6; test: organism not typed; assay type: cell-based
# [9] = system: recHPIV3-JS-NanoLuc; test: microbe, parasite or virus in culture; assay type: cell-based
# [10] = system: SeV; design: species or system mice; details: mouse, in vivo
# [11] = in vitro; details: African green monkey
# [12] = system: HPIV3; test: microbe, parasite or virus in culture; assay type: cell-based
# [13] = molecular target: MeV-Edm RdRP (Measles virus, UniProt P12576); assay type: cell-based
# [14] = system: clinical isolates HPIV3-9R4 and HPIV3-10L3; test: microbe, parasite or virus in culture; assay type: cell-based
# [15] = system: MeV primary transcription; assay type: cell-based
# [16] = system: HPIV2; assay type: cell-based
# [17] = system: canine distemper virus (CDV); assay type: cell-based
# [18] = system: HPIV3-infected HBTECs; assay type: cell-based, human
# [19] = system: HPIV1; assay type: cell-based
# [20] = in vitro; details: human
# [21] = system: influenza A viruses; assay type: cell-based
# [22] = Stability in mouse liver microsomes; assay type: in vitro ADME
# Protocol: as §1
# [23] = system: RSV; assay type: cell-based
# [24] = system: 3D-ALI-HBTEC
# [25] = system: HPIV3 primary transcription; assay type: cell-based
# [26] = molecular target: RSV-derived minigenome (Human respiratory syncytial virus A, UniProt P28887); assay type: cell-based
# [27] = in vitro; assay type: in vitro ADME; details: plasma
# Protocol: as §1
# [28] = Pharmacokinetics analysis in mice; assay type: in vivo
# [29] = molecular target: purified MeV L (L1708) (Measles virus, UniProt Q9WMB3); test: biochemical; assay type: binding
# [30] = molecular target: NiV L (Nipah virus, UniProt Q997F0); test: cell-based
# [31] = system: SeV; assay type: cell-based
# [32] = system: clinical isolates of HPIV3; assay type: cell-based
structure (smiles),measurement,setting,value
"NC(=O)c1c(F)cccc1-c1cccc2cnccc12 [GHP-88309, 2-fluoro-6-(5-isoquinolyl)benzamide]",RNA elongation (3′ extension) after back-priming,[1],does not block; also recorded: did not block RNA elongation
same,de novo RNA synthesis (initiation at the promoter),[1],inhibits; also recorded: dose-dependent inhibition
same,binding,[2],drastically reduced
same,inhibitory activity,[3],Inhibitory activity
same,potency (EC50) against clinical isolates,[3],low-micromolar to submicromolar
same,half-life,"[4]; both sexes, human, pooled human liver microsomes, pH 7.5, human liver microsomes, read-out: half-life (t1/2)",> 15 h
same,half-life (t1/2),[4]; human liver microsomes,15.3 h
same,effect on cell proliferation,[5]; concentration range up to 100 μM,No toxicity was detectable
same,cytotoxicity,"[5]; multi-day incubation, up to 1 mM, infected cells highest 300 μM",no cytotoxicity
same,inhibition of viral RdRP activity,[6],specific inhibition
same,inhibition of viral RdRP activity,[7],specific inhibition
same,pEC50,[8],6.55
same,pEC50,[9],5.94 to 6.23
same,pEC50,[9]; Human respirovirus 3,> 6.00
same,pEC50,"[9]; Human respirovirus 3, read-out: active concentrations against recHPIV3-JS-NanoLuc",6.11 to 6.40
same,IFN-β induction in lung tissue,[10],significantly lower
same,IL12b expression in lung tissue,[10],increased
same,body temperature,[10],prevented hypothermia
same,body weight,[10],alleviated body weight losses
same,clinical signs,[10],significantly alleviated
same,"expression of inflammatory markers (IL-6, TNF, Acod1)",[10],significantly decreased
same,humoral anti-SeV response of recoverees,[10],robust humoral anti-SeV response
same,lung histopathology,[10],no statistically significant (P=0.62) pathological changes
same,lung inflammation and cellular infiltrates,[10],alleviated
same,outcome of rechallenge,[10],complete survival without development of clinical signs
same,survival,[10],All treated animals survived; also recorded: complete protection
same,survival after primary infection,[10],all animals survived
same,virus load in lungs,[10],significantly reduced
same,virus load in trachea,[10],significantly reduced
same,CC50,[11],> 20 µM
same,pEC50,[12],6.98
same,sterilizing concentration in the basolateral chamber,[12],10 µM
same,pEC50,[12]; Human respirovirus 3,7.05
same,inhibition of viral RdRP activity,[13],specific inhibition
same,pEC50,"[14]; Human respirovirus 3, HPIV3-9R4 on HBTEC cultures",7.15
same,pEC50,"[14]; Human respirovirus 3, HPIV3-10L3 on HBTEC cultures",7.10
same,viral mRNA amounts during primary transcription,[15],dose-dependent reduction
same,inhibitory activity,[16],not inhibited
same,inhibitory activity,[17],Inhibitory activity
same,IFN-β levels,[18],did not reduce
same,ISG expression,[18],enhanced
same,inhibitory activity,[19],Inhibitory activity
same,potency (EC50) against clinical isolates,[19],low-micromolar to submicromolar
same,CC50,[20],1000 µM
same,inhibitory activity,[21],not inhibited
same,half-life,"[22]; CD-1, mouse, pooled CD-1 mouse liver microsomes, pH 7.5, mouse liver microsomes, read-out: half-life (t1/2)",> 15 h
same,half-life (t1/2),[22]; mouse liver microsomes,> 24 h
same,inhibitory activity,[23],not inhibited
same,TEER and tight junction organization,[24],unchanged
same,viral mRNA amounts during primary transcription,[25],dose-dependent reduction
same,inhibition of viral RdRP activity,[26],not affected
same,half-life,"[27]; CD-1, mouse",> 15 h
same,half-life,[27]; human,> 15 h
same,effect of multi-day dosing on PK properties,"[28]; 150 mg/kg oral, single vs multi dosing",did not significantly (P>0.82) alter
same,tolerability,"[28]; 5-day multi-dose oral, b.i.d. 150 mg/kg",well tolerated; also recorded: no signs of biotoxicity
same,organ concentrations,"[28]; all soft tissues incl. lung, 60 minutes after plasma Cmax, single oral 150 mg/kg",70 to 246 nmol/g
same,concentration at 11.5 h,"[28]; female, 129x1/SvJ, mouse, plasma, 150 mg/kg oral b.i.d., 4-day treatment period, read-out: drug plasma concentration at trough",~34 µM
same,bioavailability,"[28]; female, 129x1/SvJ, mouse, plasma, single-dose oral vs i.v.",~90%
same,sustained drug plasma concentrations,[28]; single oral dose 150 mg/kg,> 30 µM
same,pKd,[29],5.21
same,difference between EC50 and KD concentrations,[29],~10 fold
same,pEC50,[30],3.50
same,inhibitory activity,[31],Inhibitory activity
same,potency (EC50) against clinical isolates,[32],low-micromolar to submicromolar

# Reference: patent publication US20220411378A1, “SMALL MOLECULES POLYMERASE INHIBITORS” (GEORGIA STATE UNIVERSITY RESEARCH FOUNDATION, INC., priority 2019, published 2022)
